One experiment deals with MV4;11 cells. As to the kind of experiment: Cell Titer-Glo cell growth inhibition in MV4;11 cell line (Day 5 / Day 10). It counts as cell-based. How it is done: Cell growth inhibition against MV4;11 cells was confirmed for the synthetic compounds. The Cell Titer-Glo Luminescent Cell Viability Assay (Promega, USA) was used to determine the number of viable cells in culture based on quantitation of the ATP present, which signals the presence of metabolically active cells. This assay was run in a 96-well plate format arrayed in a 10-point dose curve, ranging from 0 to 50 µM with 4-fold dilutions for each compound. Cells are seeded on Day 0 at 3750 cells per well. At Day 5, a portion of each well is assayed for viability according to the Cell Titer-Glo protocol. Briefly, cells/plates were centrifuged at 1100×g for 5 minutes. 100 μL of media was removed from each well and replaced with 100 μL of CellTiter-Glo. The plates were shaken at room temperature for 10 minutes and measured on a luminescence plate reader. Another portion of each well from the Day 5 plate is used to seed a new 96 plate containing fresh compound and media set up in the equivalent 10-point dose curve array in order to continue the cell growth inhibition assay for another 5 days. A final timepoint is collected at Day 10 using the Cell Titer-Glo protocol. Luminescence was detected on an En Vision® Multilabel Plate Reader (Perkin Elmer, Waltham, Mass.) and IC50 determination was made using Graph Pad Prism software.
(In general: In ATP-based viability assays light output follows the ATP content of the culture.)

The next experiment addresses LSD1 (Homo sapiens, UniProt O60341). As to the kind of experiment: LSD1 fluorescence coupling enzyme assay (HRP/Amplex Red, H3(1-21)K4me2 peptide), 10-dose IC50. It counts as biochemical. The conditions noted are these: 10 μM histone H3(1-21)K4me2 peptide substrate, 3-fold serial dilution from 100 μM. An outline of the steps: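 Fluorescence coupled assay: LSD1 demethylation of 10 μM H3(1-21)K4me2 peptide produces FAD-dependent H2O2, detected via HRP/Amplex Red as resorufin (Ex/Em 535/590 nm). IC50 from 10 doses, 3-fold serial dilution from 100 μM, in duplicate.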

The mark [1] stands for this setting: Homo sapiens, MV4-11, 120 h, Day 5, read-out: Cell Titer-Glo IC50 (5 d).
Setting [2] is: Homo sapiens, MV4-11, 240 h, Day 10, read-out: Cell Titer-Glo IC50 (10 d).

Like-named read-outs stand apart in the source and are kept apart here.

A word on the IC50: it is the concentration needed to halve the response being measured. Consider `COc1ccc(-n2nc(NC[C@H]3CCC[C@@H](N)C3)cc2-c2ccc(C#N)c(F)c2)cc1` (single isomer, unassigned) [Example 5a], for which the IC50 in the experiment with MV4;11 cells (setting [1]) is 500 to 1000 nM; against LSD1, under 500 nM.
As to `Cn1ncc2cc(-n3nc(NC[C@H]4CCC[C@H](N)C4)cc3-c3ccc(C#N)c(F)c3)ccc21` (single isomer, unassigned) [Example 7c], the IC50 in the experiment with MV4;11 cells (setting [1]), in the experiment with MV4;11 cells (setting [2]) and against LSD1 was under 500 nM throughout.
For the compound `Cn1cc2cc(-n3nc(NC[C@@H]4CCNC4)cc3-c3ccc(C#N)c(F)c3)ccc2n1` [Example 21R, (R)-2-fluoro-4-(1-(2-methyl-2H-indazol-5-yl)-3-((pyrrolidin-3-ylmethyl)amino)-1H-pyrazol-5-yl)benzonitrile], the IC50 in the experiment with MV4;11 cells (setting [1]) and against LSD1 was 500 to 1000 nM throughout.
Regarding `N#Cc1ccc(-c2cc(NC[C@H]3CCC[C@H](N)C3)nn2-c2ccc3c(cnn3-c3ccccc3)c2)cc1F` [Example 15, 4-(3-((((1S,3S)-3-aminocyclohexyl)methyl)amino)-1-(1-phenyl-1H-indazol-5-yl)-1H-pyrazol-5-yl)-2-fluorobenzonitrile], the IC50 in the experiment on MV4;11 cells (setting [1]), in the experiment with MV4;11 cells (setting [2]) and against LSD1 was under 500 nM in each case.
Turning to `Cn1cc(-c2cccc(-n3nc(NC[C@H]4CCC[C@H](N)C4)cc3-c3ccc(C#N)c(F)c3)c2)cn1` [Example 55, 4-(3-((((1S,3S)-3-aminocyclohexyl)methyl)amino)-1-(3-(1-methyl-1H-pyrazol-4-yl)phenyl)-1H-pyrazol-5-yl)-2-fluorobenzonitrile], the IC50 was 500 to 1000 nM with MV4;11 cells (setting [1]), under 500 nM with MV4;11 cells (setting [2]) and under 500 nM against LSD1.
For `COc1ccc(-n2nc(NC[C@@H]3CC[C@H](N)C3)cc2-c2ccc(C#N)c(F)c2)cc1` (single isomer, unassigned) [Example 4b], the IC50 with MV4;11 cells (setting [1]) was 500 to 1000 nM; at LSD1 it was under 500 nM.
Turning to `N#Cc1ccc(-c2cc(NCC3CCCNCC3)nn2-c2ccc(N3CCCC3)cc2)cc1F` (stereo not drawn) [Example 24, 4-(3-((azepan-4-ylmethyl)amino)-1-(4-(pyrrolidin-1-yl)phenyl)-1H-pyrazol-5-yl)-2-fluorobenzonitrile], the IC50 with MV4;11 cells (setting [1]), in the experiment with MV4;11 cells (setting [2]) and against LSD1 was under 500 nM each time.
For `N#Cc1ccc(-c2cc(NC[C@H]3CCC[C@H](N)C3)nn2-c2ccc3nn(-c4ccccc4)cc3c2)cc1F` [Example 16, 4-(3-((((1S,3S)-3-aminocyclohexyl)methyl)amino)-1-(2-phenyl-2H-indazol-5-yl)-1H-pyrazol-5-yl)-2-fluorobenzonitrile], the IC50 in the experiment on MV4;11 cells (setting [1]), in the experiment with MV4;11 cells (setting [2]) and on LSD1 was under 500 nM each time.
Turning to “4-(3-(4-aminopiperidin-1-yl)-1-(p-tolyl)-1H-pyrazol-5-yl)-2-fluorobenzonitrile/4-(5-(4-aminopiperidin-1-yl)-1-(p-tolyl)-1H-pyrazol-3-yl)-2-fluorobenzonitrile [Example 34]”, the IC50 was 1000 to 10000 nM with MV4;11 cells (Day 5, read-out: Cell Titer-Glo IC50 (5 d)) and under 500 nM against LSD1.
`N#Cc1ccc(-c2cc(NC[C@@H]3CCC[C@@H](N)C3)nn2-c2ccc3c(cnn3-c3ccncc3)c2)cc1F` [Example 76, 4-(3-((((1R,3R)-3-aminocyclohexyl)methyl)amino)-1-(1-(pyridin-4-yl)-1H-indazol-5-yl)-1H-pyrazol-5-yl)-2-fluorobenzonitrile]: the values for the IC50 in the experiment with MV4;11 cells (setting [1]), in the experiment on MV4;11 cells (setting [2]) and on LSD1 were 500 to 1000 nM, under 500 nM and under 500 nM, respectively.
Regarding `CS(=O)(=O)n1cc(-c2cccc(-n3nc(NC[C@H]4CCC[C@H](N)C4)cc3-c3ccc(C#N)c(F)c3)c2)cn1` [Example 60, 4-(3-((((1S,3S)-3-aminocyclohexyl)methyl)amino)-1-(3-(1-(methylsulfonyl)-1H-pyrazol-4-yl)phenyl)-1H-pyrazol-5-yl)-2-fluorobenzonitrile], the IC50 in the experiment on MV4;11 cells (setting [1]) was 1000 to 10000 nM; with MV4;11 cells (setting [2]), under 500 nM; at LSD1, 1000 to 10000 nM.
For the compound `COc1ccc(-n2nc(NCC3CC[C@@H](N)C3)cc2-c2ccc(C#N)c(F)c2)cc1` (mixture of isomers) [Example 4, rac-4-(3-((((1S,3R)-3-aminocyclopentyl)methyl)amino)-1-(4-methoxyphenyl)-1H-pyrazol-5-yl)-2-fluorobenzonitrile], the IC50 in the experiment with MV4;11 cells (setting [1]) is 1000 to 10000 nM; at LSD1, under 500 nM.
On to `Cn1cc2cc(-n3nc(NC[C@H]4CCC[C@H](N)C4)c(Cl)c3-c3ccc(C#N)c(F)c3)ccc2n1` [Example 37, 4-(3-((((1S,3S)-3-aminocyclohexyl)methyl)amino)-4-chloro-1-(2-methyl-2H-indazol-5-yl)-1H-pyrazol-5-yl)-2-fluorobenzonitrile], for which the IC50 with MV4;11 cells (setting [1]), in the experiment on MV4;11 cells (setting [2]) and against LSD1 was under 500 nM each time.
Consider `COc1ccc(-n2nc(NCC3CCCNCC3)cc2-c2ccc(C#N)c(F)c2)cc1` (single isomer, unassigned) [Example 22a, 4-(3-((azepan-4-ylmethyl)amino)-1-(4-methoxyphenyl)-1H-pyrazol-5-yl)-2-fluorobenzonitrile], for which the IC50 in the experiment on MV4;11 cells (setting [1]), in the experiment with MV4;11 cells (setting [2]) and against LSD1 was under 500 nM each time.
Take `COc1ccc(-n2nc(NCC3CCNCC3)cc2-c2ccc(C#N)c(F)c2)cc1` [Example 2, 2-Fluoro-4-(1-(4-methoxyphenyl)-3-((piperidin-4-ylmethyl)amino)-1H-pyrazol-5-yl)benzonitrile]: the IC50 in the experiment on MV4;11 cells (setting [1]) and at LSD1 was under 500 nM in each case.
Regarding `Cn1nnc2ccc(-n3nc(NC[C@H]4CCC[C@H](N)C4)cc3-c3ccc(C#N)c(F)c3)cc21` [Example 74, 4-(3-((((15,3S)-3-aminocyclohexyl)methyl)amino)-1-(1-methyl-1H-benzo[d][1,2,3]triazol-6-yl)-1H-pyrazol-5-yl)-2-fluorobenzonitrile], the IC50 in the experiment on MV4;11 cells (setting [1]) was 1000 to 10000 nM; in the experiment on MV4;11 cells (setting [2]), under 500 nM; at LSD1, 1000 to 10000 nM.
As for `COc1ccc(-n2nc(NC[C@H]3C[C@H](N)C3)cc2-c2ccc(C#N)c(F)c2)cc1` [Example 42, 4-(3-((((1r,3r)-3-aminocyclobutyl)methyl)amino)-1-(4-methoxyphenyl)-1H-pyrazol-5-yl)-2-fluorobenzonitrile], the results for the IC50 in the experiment with MV4;11 cells (setting [1]), with MV4;11 cells (setting [2]) and on LSD1 were 1000 to 10000 nM, under 500 nM and 1000 to 10000 nM, respectively.
As for `COc1ccc(-n2nc(NCc3cccc(N)c3)cc2-c2ccc(C#N)c(F)c2)cc1` [Example 40, 4-(3-((3-aminobenzyl)amino)-1-(4-methoxyphenyl)-1H-pyrazol-5-yl)-2-fluorobenzonitrile], the IC50 was over 10000 nM in the experiment on MV4;11 cells (setting [2]) and 1000 to 10000 nM at LSD1.
For `COc1ccc(-n2nc(NCC3CC3N)cc2-c2ccc(C#N)c(F)c2)cc1` (racemic) [Example 29, (±)-trans-4-(3-(((2-aminocyclopropyl)methyl)amino)-1-(4-methoxyphenyl)-1H-pyrazol-5-yl)-2-fluorobenzonitrile], the IC50 in the experiment with MV4;11 cells (setting [1]), with MV4;11 cells (setting [2]) and against LSD1 was 1000 to 10000 nM in each case.
As for `Cn1ncc2cc(-n3nc(NC[C@H]4CCC[C@@H](N)C4)cc3-c3ccc(C#N)c(F)c3)ccc21` (single isomer, unassigned) [Example 7a], the IC50 in the experiment with MV4;11 cells (setting [1]) fell in the range of 1000 to 10000 nM; against LSD1, 500 to 1000 nM.
Taken in the same sequence, the figures for `CN[C@H]1CCC[C@H](CNc2cc(-c3ccc(C#N)c(F)c3)n(-c3ccc(OC)cc3)n2)C1` (single isomer, unassigned) [Example 33a] were 1000 to 10000 nM and 500 to 1000 nM.
For `CC(C)n1ncc2cc(-n3nc(NC[C@@H]4CCC[C@@H](N)C4)cc3-c3ccc(C#N)c(F)c3)ccc21` [Example 73, 4-(3-((((1R,3R)-3-aminocyclohexyl)methyl)amino)-1-(1-isopropyl-1H-indazol-5-yl)-1H-pyrazol-5-yl)-2-fluorobenzonitrile], the IC50 is 500 to 1000 nM in the experiment with MV4;11 cells (setting [1]), under 500 nM in the experiment on MV4;11 cells (setting [2]) and under 500 nM at LSD1.
Consider `N#Cc1ccc(-c2cc(NC[C@H]3CCC[C@H](N)C3)nn2-c2cccc(N3CCS(=O)(=O)CC3)c2)cc1F` [Example 51, 4-(3-((((1S,3S)-3-aminocyclohexyl)methyl)amino)-1-(3-(1,1-dioxidothiomorpholino)phenyl)-1H-pyrazol-5-yl)-2-fluorobenzonitrile], for which the results for the IC50 in the experiment with MV4;11 cells (setting [1]), with MV4;11 cells (setting [2]) and against LSD1 were 1000 to 10000 nM, under 500 nM and 1000 to 10000 nM, respectively.
Regarding `CN1CCN(c2cccc(-n3nc(NC[C@H]4CCC[C@H](N)C4)cc3-c3ccc(C#N)c(F)c3)c2)CC1` [Example 45, 4-(3-((((1S,3S)-3-aminocyclohexyl)methyl)amino)-1-(3-(4-methylpiperazin-1-yl)phenyl)-1H-pyrazol-5-yl)-2-fluorobenzonitrile], the IC50 is 500 to 1000 nM in the experiment with MV4;11 cells (setting [1]), under 500 nM in the experiment on MV4;11 cells (setting [2]) and 1000 to 10000 nM on LSD1.
